Data published in ChEMBL document CHEMBL1141281, “Targeted natural product isolation guided by HPLC-SPE-NMR: constituents of Hubertia species” (2007).
In brackets after ≈: the same amount, converted by molar mass. Activity calls are given as the source filed them. The rule behind the calls is not given here.

Key:
[1] = Inhibition of Cu2+ induced human LDL oxidation; format: functional
Bacillus subtilis [2] = assay: Antimicrobial activity against Bacillus subtilis ATCC 6633 at 500 ug/mL after 24 hrs by MTT assay; format: functional, organism-based
Escherichia coli [3] = assay: Antimicrobial activity against Escherichia coli ATCC 11229 at 500 ug/mL after 24 hrs by MTT assay; format: functional, organism-based
Staphylococcus aureus [4] = assay: Antimicrobial activity against Staphylococcus aureus ATCC 6538 at 500 ug/mL after 24 hrs by MTT assay; format: functional, organism-based
Bacillus subtilis [5] = assay: Antimicrobial activity against Bacillus subtilis ATCC 6633 after 24 hrs by MTT assay; format: functional; conditions: ATCC 6633, 24 h
Staphylococcus aureus [6] = assay: Antimicrobial activity against Staphylococcus aureus ATCC 6538 after 24 hrs by MTT assay; format: functional; conditions: ATCC 6538, 24 h
Escherichia coli [7] = assay: Antimicrobial activity against Escherichia coli ATCC 11229 after 24 hrs by MTT assay; format: functional; conditions: ATCC 11229, 24 h

In the case of `O=C(C=Cc1ccc(O)c(O)c1)O[C@@H]1C[C@](O)(C(=O)O)C[C@@H](O)[C@H]1O`, the Activity [1] is reported as “Dose-dependent effect”.

For `O=C(/C=C/c1ccc(O)c(O)c1)O[C@@H]1C[C@](O)(C(=O)O)C[C@@H](OC(=O)/C=C/c2ccc(O)c(O)c2)[C@H]1O`, the Activity [1] was “Dose-dependent effect”.

In the case of `O=C1C=CC(O)(CC(=O)O[C@H]2[C@H](OC(=O)/C=C/c3ccc(O)c(O)c3)C[C@](O)(C(=O)O)C[C@H]2OC(=O)/C=C/c2ccc(O)c(O)c2)C=C1`, the Activity (Bacillus subtilis [2]) is reported as “inactive”, the Activity (Escherichia coli [3]) is reported as “inactive” and the Activity (Staphylococcus aureus [4]) is reported as “inactive”.

In the case of `CN[C@@H]1[C@H](O[C@H]2[C@H](O[C@H]3[C@H](O)[C@@H](O)[C@H](N=C(N)N)[C@@H](O)[C@@H]3N=C(N)N)O[C@@H](C)[C@]2(O)C=O)O[C@@H](CO)[C@H](O)[C@H]1O` (stereo in doubt) [STREPTOMYCIN], the MIC (Bacillus subtilis [5]) is reported as 12.5 µg/mL (≈ 21.5 µM), the MIC (Staphylococcus aureus [6]) is reported as 12.5 µg/mL (≈ 21.5 µM) and the MIC (Escherichia coli [7]) is reported as 12.5 µg/mL (≈ 21.5 µM).
